According to US4091006A, “Esters of 3-hydroxyindone compounds” (priority 1975, dated 1978):
In brackets after ≈: the same amount, converted by molar mass.

Experiments:
Mite Ova = experiment: whole plant or invertebrate; conditions: for LC50: Tetranychus urticae, read-out: Mite Ova LD50; for Mite Ova LD95: concentration to kill 95 percent
Description: The test organism was the egg of the two-spotted mite (Tetranychus urticae (Koch)), as obtained from adults reared on Tendergreen bean plants under controlled conditions of 80±5° F. and 50±5 percent relative humidity. Heavily infested leaves from a stock culture were placed on the primary leaves of two bean plants 6 to 8 inches in height, growing in a 21/2 inch clay pot. Females were allowed to oviposit for a period of 48 hours and then the leaves of the infested plants were dipped in a solution containing 800 parts of tetraethyl pyrophosphate per million parts of water in order to destroy the reproductory forms and thus prevent further egg laying. […] The plants were allowed to dry thoroughly. […] The potted plants (one pot per compound) were placed on a revolving turntable and sprayed with 100-110 milliliters of test compound formulation by use of a DeVilbis spray gun set at 40 psig. air pressure. This application, which lasted 30 seconds, was sufficient to wet the plants to run-off. As a control, 100-110 milliliters of a water solution containing acetone and emulsifier in the same concentrations as the test compound formulation, but containing no test compound, were also sprayed on plants infested with eggs. The sprayed plants were held at 80±5° F. and 50±5 percent relative humidity for 4 days, after which a microscopic examination was made of unhatched (dead) and hatched (living) eggs.
(§1) Side by side comparison tests were conducted to determine the effectiveness of selected enol ester compounds relative to (bis(p-chlorophenyl)trichlorethanol) a miticide sold under the trademark Kelthane and ovex (p-chlorophenyl-p-chlorobenzene sulfonate) two widely used commercial miticides.

Mite Adults = experiment: whole plant or invertebrate; conditions: for LC50: Tetranychus urticae, read-out: Mite Adults LD50; for Mite Adults LD95: concentration to kill 95 percent
Description: Adults and nymphal stages of the two-spotted mite (tetranychus urticae (Koch)), reared on Tendergreen bean plants at 80±5° F. and 50±5 percent relative humidity, were the test organisms. Infested leaves from a stock culture were placed on the primary leaves of two bean plants 6 to 8 inches in height, growing in a 21/2 inch clay pot. 150-200 Mites, a sufficient number for testing, transferred from the excised leaves to the fresh plants in a period of 24 hours. Following the 24 hour transfer period, the excised leaves were removed from the infested plants. The test compounds were formulated by diluting the stock suspension with water to provide suspensions containing the desired amount of test compound per million parts of final formulation. The potted plants (one pot per compound) were placed on a revolving turntable and sprayed with 100-110 milliliters of test compound formulation by use of a DeVilbis spray gun set at 40 psi. air pressure. This application, which lasted 30 seconds, was sufficient to wet the plants to run-off. As a control, 100-110 milliliters of a water solution containing acetone and emulsifier in the same concentrations as the test compound formulation, but containing no test compound, were also sprayed on infested plants. The sprayed plants were held at 80±5° F. and 50±5 percent relative humidity for 4 days, after which, a mortality count of motile forms was made. Microscopic examination for motile forms was made on the leaves of the test plants. Any individual which was capable of locomotion upon prodding was considered living.
as §1

[1] = test system: egg forms of the two-spotted mite; experiment: Fumigant toxicity, Method 2 (treated plants near untreated infested plants); format: in vivo; conditions: 500 ppm dip, 4 days
Description: (§2) Two methods were used to evaluate fumigant properties:
Method 2: Excised bean plants infested with egg forms of the two-spotted mite were dipped in an aqueous preparation (500 ppm) of the test compound. The treated plants were transferred to 250 ml. Erlenmeyer flasks containing 100 ml. of tap water. Four flasks holding treated plants were evenly spaced around a similar flask in which were placed untreated mite-infested plants so that the leaves of the treated foliage were in close proximity (1-3 inches) to the untreated plants. Four days later mortality determinations were made.

Tomato = experiment: Phytotoxicity, tomato; conditions: 2500 ppm, 10 days
Description: (§5) Experiments were also conducted to determine the phytotoxicity of representative enol ester compositions with respect to healthy fresh plants. […] The test plants were sprayed in accordance with the procedure described above for the Mite Foliage Spray Test so as to deliver approximately 100 milliliters of test solution to the leaves of each plant tested. The sprayed plants and controls were set aside for approximately 1 hour to allow the solutions to dry and were then placed in the greenhouse. After 10 days the plants were visually inspected to determine the extent of foliage injury. A rating of 1 indicates no perceptible injury; 5 indicates the plant was dead and ratings of 2, 3 and 4 indicate intermediate degrees of injury based upon the number and extent to which leaves were injured.

Cotton = experiment: Phytotoxicity, cotton; conditions: 2500 ppm, 10 days
Description: as §5

Bean = experiment: Phytotoxicity, bean; conditions: 2500 ppm, 10 days
Description: as §5

[2] = test system: Perennial rye grass, crabgrass, red root pigweed, mustard; experiment: Preliminary Herbicide Seed Germination Test; conditions: each rated 1 (no injury) to 5 (no seedlings emerged)
[3] = test system: egg of the two-spotted mite; experiment: Mite Ovicide Test; format: in vivo, Tetranychus urticae (Koch); conditions: spray on eggs, 4 days
Text: (§3) The test procedures were as follows:
The plants were allowed to dry thoroughly.
(§4) Compositions were rated on the basis of percent kill with a rating of 1 indicating no mortality; 3 signifying an approximately 50% mortality and 5 indicating 100% mortality at the indicated dosage.

[4] = test system: adults and nymphal stages of the two-spotted mite; experiment: Mite Foliage Spray Test; format: in vivo, Tetranychus urticae (Koch); conditions: 4 days
Text: as §3, §4

[5] = test system: eggs of the two-spotted mite; experiment: Fumigant toxicity, Method 1 (deposit in pie plate); format: in vivo; conditions: deposit approx. 160 μg per square cm, 4 days
Description: as §2
Method 1: Fifty mg. of each compound were dissolved in 5 ml. of acetone and poured into a 20 cm. (bottom diameter) Pyrex No. 210 pie plate. The acetone was allowed to evaporate leaving a deposit of approximately 160 μg. per square cm. The plate was then placed in the bottom of a 50 pound metal lard container (about 30 cm. in diameter and 34 cm. high). Two excised bean plants, held in a 250 ml. Erlenmeyer flask containing 100 ml. of tap water and infested with eggs of the two-spotted mite, were placed in the center of the pie plate. The container was held in the insectary (temperature 80±5° F., 50±5% R. H.) for four days before mortality determinations were made.

Corn = experiment: Phytotoxicity, corn; conditions: 2500 ppm, 10 days
Description: as §5

[6] = rating/maximum 15: 100 ppm only, crabgrass omitted
[7] = rating/maximum 20: 100 ppm only, four species
[8] = rating/maximum 40: 100 and 1000 ppm, four species, 10-12 days

SMILES: O=S(=O)(Oc1ccc(Cl)cc1)c1ccc(Cl)cc1 [Ovex, p-chlorophenyl-p-chlorobenzene sulfonate, reference compound]
- LC50 (Mite Ova): 200 µg/mL
- Mite Ova LD95 (Mite Ova): 300 ppm
- LC50 (Mite Adults): 1000 µg/mL

SMILES: OC(c1ccc(Cl)cc1)(c1ccc(Cl)cc1)C(Cl)(Cl)Cl [Kelthane, bis(p-chlorophenyl)trichlorethanol]
- LC50 (Mite Ova): 370 µg/mL (≈ 999 µM)
- Mite Ova LD95 (Mite Ova): 700 ppm
- LC50 (Mite Adults): 20 µg/mL (≈ 54 µM)
- Mite Adults LD95 (Mite Adults): 65 ppm

SMILES: Cc1cc(C)c(C2=C(OC(=O)C3CC4C=CC3C4)c3ccccc3C2=O)c(C)c1 (stereo not drawn) [2-(2',4',6'-Trimethylphenyl)-3-(endo-exonorborn-5-en-2-carbonyloxy)indone]
- Fumigant Toxicity Method 2 [1]: 1
- Phytotoxicity Rating, Tomato (Tomato): 1
- Phytotoxicity Rating, Cotton (Cotton): 2
- Phytotoxicity Rating, Bean (Bean): 1
- Herbicide (total preemergence rating) [2, 6]: 11/15
- Mite Ova rating [3]: 5 (100% mortality)
- Mite Adult rating [4]: 5 (100% mortality)
- Fumigant Toxicity Method 1 [5]: 1
- Phytotoxicity Rating, Corn (Corn): 1

SMILES: CC=CCCCCCCCC(=O)OC1=C(c2c(C)cc(C)cc2C)C(=O)c2ccccc21 [2-(2',4',6'-Trimethylphenyl)-3-(undec-9-enoyloxy)indone]
- Fumigant Toxicity Method 2 [1]: 1
- Phytotoxicity Rating, Tomato (Tomato): 2
- Phytotoxicity Rating, Cotton (Cotton): 1
- Phytotoxicity Rating, Bean (Bean): 2
- Herbicide (total preemergence rating) [2, 7]: 19/20
- Mite Ova rating [3]: 5 (100% mortality)
- Mite Adult rating [4]: 5 (100% mortality)
- Fumigant Toxicity Method 1 [5]: 1
- Phytotoxicity Rating, Corn (Corn): 2

SMILES: CCCCC(CC)COC(=O)OC1=C(c2c(C)cc(C)cc2C)C(=O)c2ccccc21 (stereo not drawn) [2-(2',4',6'-Trimethylphenyl)-3-(2-ethylhexyloxycarbonyloxy)indone]
- Fumigant Toxicity Method 2 [1]: 1
- Phytotoxicity Rating, Tomato (Tomato): 1
- Phytotoxicity Rating, Cotton (Cotton): 1
- Phytotoxicity Rating, Bean (Bean): 1
- Herbicide (total preemergence rating) [2, 7]: 15/20
- Mite Ova rating [3]: 5 (100% mortality)
- Mite Adult rating [4]: 5 (100% mortality)
- Fumigant Toxicity Method 1 [5]: 1
- Phytotoxicity Rating, Corn (Corn): 2

SMILES: CCCCC(CC)C(=O)OC1=C(c2c(C)cc(C)cc2C)C(=O)c2ccccc21 (stereo not drawn) [2-(2',4',6'-Trimethylphenyl)-3-(2-ethylhexanoyloxy)indone]
- Mite Ova LD95 (Mite Ova): 6 ppm
- Fumigant Toxicity Method 2 [1]: 1
- Phytotoxicity Rating, Tomato (Tomato): 1
- Phytotoxicity Rating, Cotton (Cotton): 1
- Phytotoxicity Rating, Bean (Bean): 2
- Herbicide (total preemergence rating) [2, 8]: 29/40
- Mite Adults LD95 (Mite Adults): 230 ppm
- Mite Ova rating [3]: 5 (100% mortality)
- Mite Adult rating [4]: 5 (100% mortality)
- Fumigant Toxicity Method 1 [5]: 1
- Phytotoxicity Rating, Corn (Corn): 1

SMILES: Cc1cc(C)c(C2=C(OC(=O)C(C)C)c3ccccc3C2=O)c(C)c1 [2-(2',4',6'-Trimethylphenyl)-3-(isobutyryloxy)indone]
- Fumigant Toxicity Method 2 [1]: 5 (80-100% control)
- Phytotoxicity Rating, Tomato (Tomato): 2
- Phytotoxicity Rating, Cotton (Cotton): 2
- Phytotoxicity Rating, Bean (Bean): 1
- Herbicide (total preemergence rating) [2, 8]: 37/40
- Mite Ova rating [3]: 5 (100% mortality)
- Mite Adult rating [4]: 5 (100% mortality)
- Fumigant Toxicity Method 1 [5]: 5 (80-100% control)
- Phytotoxicity Rating, Corn (Corn): 4

SMILES: CCCCCCCCCCCCCCCCCC(=O)OC1=C(c2c(C)cc(C)cc2C)C(=O)c2ccccc21 [2-(2',4',6'-Trimethylphenyl)-3-(octadecanoyloxy)indone]
- Fumigant Toxicity Method 2 [1]: 1
- Phytotoxicity Rating, Tomato (Tomato): 1
- Phytotoxicity Rating, Cotton (Cotton): 1
- Phytotoxicity Rating, Bean (Bean): 1
- Herbicide (total preemergence rating) [2, 7]: 19/20
- Mite Ova rating [3]: 5 (100% mortality)
- Mite Adult rating [4]: 5 (100% mortality)
- Fumigant Toxicity Method 1 [5]: 1
- Phytotoxicity Rating, Corn (Corn): 1

SMILES: Cc1cc(C)c(C2=C(OC(=O)C3CCCCC3)c3ccccc3C2=O)c(C)c1 [2-(2',4',6'-Trimethylphenyl)-3-(cyclohexanoyloxy)indone]
- Fumigant Toxicity Method 2 [1]: 1
- Phytotoxicity Rating, Tomato (Tomato): 2
- Phytotoxicity Rating, Cotton (Cotton): 2
- Phytotoxicity Rating, Bean (Bean): 1
- Herbicide (total preemergence rating) [2, 8]: 31/40
- Mite Ova rating [3]: 5 (100% mortality)
- Mite Adult rating [4]: 5 (100% mortality)
- Fumigant Toxicity Method 1 [5]: 1
- Phytotoxicity Rating, Corn (Corn): 1

SMILES: CCCCCCCCSC(=O)OC1=C(c2c(C)cc(C)cc2C)C(=O)c2ccccc21 [2-(2',4',6'-Trimethylphenyl)-3-(octylthiocarbonyloxy)indone]
- Fumigant Toxicity Method 2 [1]: 1
- Phytotoxicity Rating, Tomato (Tomato): 1
- Phytotoxicity Rating, Cotton (Cotton): 1
- Phytotoxicity Rating, Bean (Bean): 1
- Herbicide (total preemergence rating) [2, 6]: 11/15
- Mite Ova rating [3]: 5 (100% mortality)
- Mite Adult rating [4]: 5 (100% mortality)
- Fumigant Toxicity Method 1 [5]: 1
- Phytotoxicity Rating, Corn (Corn): 1

SMILES: Cc1cc(C)c(C2=C(OC(=O)CCCCl)c3ccccc3C2=O)c(C)c1 [2-(2',4',6'-Trimethylphenyl)-3-(4-chlorobutyryloxy)indone]
- Fumigant Toxicity Method 2 [1]: 1
- Phytotoxicity Rating, Tomato (Tomato): 2
- Phytotoxicity Rating, Cotton (Cotton): 2
- Phytotoxicity Rating, Bean (Bean): 1
- Herbicide (total preemergence rating) [2, 6]: 14/15
- Mite Ova rating [3]: 5 (100% mortality)
- Mite Adult rating [4]: 5 (100% mortality)
- Fumigant Toxicity Method 1 [5]: 1
- Phytotoxicity Rating, Corn (Corn): 2

SMILES: CCC(=O)OC1=C(c2c(C)cc(C)cc2C)C(=O)c2ccccc21 [2-(2',4',6'-Trimethylphenyl)-3-(propionyloxy)indone]
- Fumigant Toxicity Method 2 [1]: 5 (80-100% control)
- Phytotoxicity Rating, Tomato (Tomato): 2
- Phytotoxicity Rating, Cotton (Cotton): 1
- Phytotoxicity Rating, Bean (Bean): 1
- Herbicide (total preemergence rating) [2, 8]: 32/40
- Mite Ova rating [3]: 5 (100% mortality)
- Mite Adult rating [4]: 5 (100% mortality)
- Fumigant Toxicity Method 1 [5]: 5 (80-100% control)
- Phytotoxicity Rating, Corn (Corn): 2

SMILES: COC(=O)CCC(=O)OC1=C(c2c(C)cc(C)cc2C)C(=O)c2ccccc21 [2-(2',4',6'-Trimethylphenyl)-3-(3-methoxycarbonylpropionyloxy)indone]
- Fumigant Toxicity Method 2 [1]: 1
- Phytotoxicity Rating, Tomato (Tomato): 1
- Phytotoxicity Rating, Cotton (Cotton): 1
- Phytotoxicity Rating, Bean (Bean): 1
- Herbicide (total preemergence rating) [2, 6]: 15/15
- Mite Ova rating [3]: 5 (100% mortality)
- Mite Adult rating [4]: 5 (100% mortality)
- Fumigant Toxicity Method 1 [5]: 1
- Phytotoxicity Rating, Corn (Corn): 1
